Test results: ChEMBL document CHEMBL3407483, “Novel 3-nitrotriazole-based amides and carbinols as bifunctional antichagasic agents” (J Med Chem, 2015)
The source made the active and inactive calls. The rule behind the calls is not given here.

How the values were obtained:
[1] = target: Sterol 14-alpha demethylase (Trypanosoma cruzi (strain CL Brener), UniProt Q7Z1V1); test: Binding affinity to recombinant full-length Trypanosoma cruzi CYP51 by UV-spectrophotometric analysis; settings: read-out: Kd(app)
Mus musculus [2] = test: Toxicity in Balb/c mouse at 15 mg/kg/day, ip measured after 5 to 10 days; assay type: organism-based; set-up: route intraperitoneal; settings: in vivo
Trypanosoma cruzi [3] = test: Activity of his-tagged recombinant Trypanosoma cruzi type-1 nitroreductase assessed as oxidized NADH level per mg of protein after 5 mins by absorption spectrum analysis
Trypanosoma brucei = test: Activity of his-tagged recombinant Trypanosoma brucei type-1 nitroreductase assessed as oxidized NADH level per mg of protein after 5 mins by absorption spectrum analysis
Trypanosoma cruzi [4] = test: Antichagasic activity against trypomastigote stage of Trypanosoma cruzi Brazil infected in Balb/c mouse assessed as parasite index at 15 mg/kg/day, ip measured after 5 days by luciferase reporter gene assay; assay type: functional; settings: route intraperitoneal
L6 = test: Cytotoxicity against rat L6 cells assessed as growth inhibition after 72 hrs by Alamar Blue assay; assay type: cell-based; settings: L6, 72 h
[5] = Selectivity index, ratio of IC50 for rat L6 cells to IC50 for amastigote stage of Trypanosoma cruzi Tulahuen C4 infected in rat L6 cells; assay type: toxicity, cell-based; settings: read-out: Ratio IC50
[6] = test system: Trypanosoma brucei rhodesiense; test: Antitrypanosomal activity against trypomastigote stage of Trypanosoma brucei rhodesiense STIB 900 assessed as parasite growth inhibition after 72 hrs by Alamar Blue assay; assay type: functional, organism-based; settings: STIB 900, 72 h
Trypanosoma cruzi [7] = test: Antichagasic activity against trypomastigote stage of Trypanosoma cruzi Brazil infected in Balb/c mouse assessed as reduction of parasite index at 15 mg/kg/day, ip measured after 10 days by luciferase reporter gene assay relative to control; assay type: functional; set-up: scale not given: the % may be the effect or the level left; settings: route intraperitoneal
Trypanosoma cruzi [8] = test: Antitrypanosomal activity against amastigote stage of Trypanosoma cruzi Tulahuen C4 infected in rat L6 cells assessed as parasite growth inhibition after 96 hrs by colorimetric analysis; assay type: functional, organism-based; settings: Tulahuen C4, L6, 96 h
[9] = Selectivity index, ratio of IC50 for rat L6 cells to IC50 for trypomastigote stage of Trypanosoma brucei rhodesiense STIB 900; assay type: toxicity, cell-based; settings: read-out: Ratio IC50
Trypanosoma cruzi [10] = test: Potency index, ratio of benznidazole IC50 to compound IC50 for amastigote stage of Trypanosoma cruzi Tulahuen C4 infected in rat L6 cells; assay type: functional
Trypanosoma cruzi [11] = test: Antichagasic activity against trypomastigote stage of Trypanosoma cruzi Brazil infected in Balb/c mouse assessed as reduction of parasite index at 13 mg/kg/day, ip measured after 10 days by luciferase reporter gene assay relative to control; assay type: functional; set-up: scale not given: the % may be the effect or the level left; settings: route intraperitoneal
Trypanosoma cruzi [12] = test: Antichagasic activity against trypomastigote stage of Trypanosoma cruzi Brazil infected in Balb/c mouse assessed as reduction of parasite level at 13 mg/kg/day, ip measured after 5 days by luciferase reporter gene assay; assay type: functional, organism-based
Mus musculus [13] = test: Toxicity in Balb/c mouse at 13 mg/kg/day, ip measured after 5 to 10 days; assay type: organism-based; set-up: route intraperitoneal; settings: in vivo
[14] = Metabolic stability in human microsomes assessed as compound remaining at 1 uM after 60 mins by LC/MS/MS analysis in absence of NADPH; assay type: ADME, Microsome; settings: read-out: Stability
[15] = Metabolic stability in human microsomes assessed as compound remaining at 1 uM after 60 mins by LC/MS/MS analysis in presence of NADPH; assay type: ADME, Microsome; settings: read-out: Stability
[16] = Apparent permeability across apical to basolateral side in human Caco2 cells at 10 uM after 2 hrs by LC/MS/MS analysis; assay type: ADME, cell-based; settings: caco-2, 2 h
[17] = Metabolic stability in mouse microsomes assessed as compound remaining at 1 uM after 60 mins by LC/MS/MS analysis in absence of NADPH; assay type: ADME, Microsome; settings: read-out: Stability
[18] = Metabolic stability in mouse microsomes assessed as compound remaining at 1 uM after 60 mins by LC/MS/MS analysis in presence of NADPH; assay type: ADME, Microsome; settings: read-out: Stability
Trypanosoma cruzi [19] = test: Antichagasic activity against trypomastigote stage of Trypanosoma cruzi Brazil infected in Balb/c mouse assessed as reduction of parasite level at 15 mg/kg/day, ip measured after 5 days by luciferase reporter gene assay; assay type: functional, organism-based
[20] = test system: Trypanosoma brucei brucei; test: Selectivity ratio of IC50 for bloodstream form of Trypanosoma brucei brucei to IC50 for bloodstream form of Trypanosoma brucei brucei overexpressing type-1 nitroreductase; assay type: functional
[21] = test system: Trypanosoma brucei brucei; test: Antitrypanosomal activity against bloodstream form of Trypanosoma brucei brucei; assay type: functional, organism-based
[22] = test system: Trypanosoma brucei brucei; test: Antitrypanosomal activity against bloodstream form of Trypanosoma brucei brucei overexpressing type-1 nitroreductase; assay type: functional, organism-based

Sterol 14-alpha demethylase, sequence (Q7Z1V1 whole entry): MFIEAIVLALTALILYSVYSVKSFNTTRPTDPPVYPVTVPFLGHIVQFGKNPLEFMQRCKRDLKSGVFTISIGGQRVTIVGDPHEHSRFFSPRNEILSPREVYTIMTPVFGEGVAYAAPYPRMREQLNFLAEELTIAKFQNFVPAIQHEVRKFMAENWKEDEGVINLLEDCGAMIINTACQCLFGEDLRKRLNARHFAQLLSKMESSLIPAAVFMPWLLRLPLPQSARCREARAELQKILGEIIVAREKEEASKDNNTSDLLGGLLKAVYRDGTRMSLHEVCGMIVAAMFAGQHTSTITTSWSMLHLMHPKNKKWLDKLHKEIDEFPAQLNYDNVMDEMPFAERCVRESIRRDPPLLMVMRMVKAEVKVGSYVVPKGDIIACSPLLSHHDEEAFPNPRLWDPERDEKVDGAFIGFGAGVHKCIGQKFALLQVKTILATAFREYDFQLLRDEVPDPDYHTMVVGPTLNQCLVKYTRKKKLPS

SMILES	IC50 (L6)	selectivity ratio [5]	IC50 [6]	IC50 (Trypanosoma cruzi [8])	selectivity ratio [9]	also measured
O=[N+]([O-])c1ncn(CC(O)(Cn2cncn2)c2ccc(F)cc2F)n1 (centres undefined)	258 µM	220	26.6 µM	1.17 µM	–	Kd [1]: 0.606 µM; Activity (Mus musculus [2]): Non-toxic; Activity (Trypanosoma cruzi [3]): 1180 nmol/min; Activity (Trypanosoma brucei): 3060 nmol/min; Activity (Trypanosoma cruzi [4]): 24.9; Activity (Trypanosoma cruzi [7]): <4%
O=C(Cn1cnc([N+](=O)[O-])n1)c1ccc(F)cc1F	246 µM	206	34.1 µM	1.19 µM	–	–
O=C(Cn1cnc([N+](=O)[O-])n1)Nc1nnc(-c2ccc(Cl)cc2)s1	> 274 µM	> 16.5	73.9 µM	16.6 µM	–	–
O=C(Cn1cnc([N+](=O)[O-])n1)Nc1nc(-c2ccc(Cl)cc2)cs1	98.8 µM	973	4.06 µM	0.102 µM	24	–
CC(O)(Cn1cnc([N+](=O)[O-])n1)c1ccc(-c2ccccc2)cc1 (centres undefined)	86 µM	844	1.09 µM	0.102 µM	78.9	–
O=C(Cn1ccnc1[N+](=O)[O-])NCc1ccccc1 [BENZNIDAZOLE]	–	–	–	–	–	Activity (Mus musculus [2]): Non-toxic; Activity (Trypanosoma cruzi [3]): 680 nmol/min; Activity (Trypanosoma brucei): 1540 nmol/min; Activity (Trypanosoma cruzi [4]): 13.38; Activity (Trypanosoma cruzi [7]): <4%
O=C(Cn1cncn1)c1ccc(-c2ccccc2)cc1	113 µM	4.9	51.7 µM	22.8 µM	–	–
CC(O)(Cn1cncn1)c1ccc(-c2ccccc2)cc1 (centres undefined)	114 µM	162	65.6 µM	0.706 µM	1.74	–
Fc1ccc(C2(Cn3cncn3)Cn3ccnc3O2)c(F)c1 (centres undefined)	> 286 µM	> 49.4	221 µM	5.79 µM	–	–
O=C(Cn1ccnc1[N+](=O)[O-])Nc1nc(-c2ccc(F)c(F)c2)cs1	62.1 µM	15.6	10 µM	3.99 µM	–	–
Cc1ccc(S(=O)(=O)NC(Cc2ccccc2)Cn2cnc([N+](=O)[O-])n2)cc1 (centres undefined)	145 µM	428	11.6 µM	0.339 µM	–	–
CC(O)(Cn1cnc([N+](=O)[O-])n1)c1ccc(-n2ccnc2)cc1 (centres undefined)	> 318 µM	> 97	1.84 µM	3.29 µM	> 173	Activity (Trypanosoma cruzi [3]): 1070 nmol/min; Activity (Trypanosoma brucei): 3460 nmol/min
O=C(Cn1cnc([N+](=O)[O-])n1)Nc1ccc(-c2ccc(Cl)cc2)cc1	126 µM	2800	0.901 µM	0.045 µM	140	Ratio IC50 (Trypanosoma cruzi [10]): 45; Activity (Trypanosoma cruzi [11]): <4%; Activity (Trypanosoma cruzi [12]): Active; Activity (Mus musculus [13]): Non-toxic
CC(O)(Cn1cncn1)c1ccc(-n2ccnc2)cc1 (centres undefined)	> 372 µM	–	153 µM	157 µM	–	–
O=C(Cn1cnc([N+](=O)[O-])n1)Nc1ccc(N2CCCCC2)cc1	103 µM	186	17 µM	0.554 µM	–	–
O=C(Cn1ccnc1[N+](=O)[O-])c1ccc(-c2ccccc2)cc1	9.7 µM	–	76.5 µM	14.2 µM	–	–
O=[N+]([O-])c1ncn(CC(O)(Cn2cncn2)c2ccc(-c3ccccc3)cc2)n1 (centres undefined)	127 µM	3810	2.88 µM	0.033 µM	44	Kd [1]: 0.023 µM; remaining at 1 h, 1 µM [14]: 106%; remaining at 1 h, 1 µM [15]: 90.7%; Papp [16]: 16.5 ×10⁻⁶ cm/s; Ratio IC50 (Trypanosoma cruzi [10]): 68; Activity (Mus musculus [2]): Non-toxic; Activity (Trypanosoma cruzi [3]): 1160 nmol/min; remaining at 1 h, 1 µM [17]: 102%; remaining at 1 h, 1 µM [18]: 77.6%; Activity (Trypanosoma brucei): 2680 nmol/min; Activity (Trypanosoma cruzi [4]): 42.04; Activity (Trypanosoma cruzi [7]): <4%
OC(Cn1cncn1)(Cn1cncn1)c1ccc(F)cc1F [FLUCONAZOLE]	> 294 µM	–	–	9.97 µM	–	–
Cc1nc(-c2cccc(NC(=O)Cn3cnc([N+](=O)[O-])n3)c2)cs1	67.3 µM	122	7.04 µM	0.552 µM	10	–
O=C(Cn1cnc([N+](=O)[O-])n1)Nc1nc(-c2ccc(F)c(F)c2)cs1	88.1 µM	192	16.1 µM	0.459 µM	–	–
O=C(Cn1cnc([N+](=O)[O-])n1)c1ccc(-c2ccccc2)cc1	220 µM	1160	1.75 µM	0.188 µM	125	–
N#Cc1ccc(-c2ccc(NC(=O)Cn3cnc([N+](=O)[O-])n3)cc2)cc1	165 µM	1190	0.336 µM	0.138 µM	490	Activity (Trypanosoma cruzi [19]): Active; Ratio IC50 [20]: 2; remaining at 1 h, 1 µM [14]: 84.8%; remaining at 1 h, 1 µM [15]: 96.8%; Papp [16]: 18.7 ×10⁻⁶ cm/s; IC50 [21]: 0.84 µM; Activity (Mus musculus [2]): Non-toxic; Activity (Trypanosoma cruzi [3]): 888 nmol/min; IC50 [22]: 0.36 µM; remaining at 1 h, 1 µM [17]: 110%; remaining at 1 h, 1 µM [18]: 79.4%; Activity (Trypanosoma brucei): 3170 nmol/min; Activity (Trypanosoma cruzi [7]): <4%
CC1(c2ccc(-n3ccnc3)cc2)CO1 (centres undefined)	277 µM	–	76.2 µM	188 µM	–	–
